System: Arabidopsis thaliana seedlings
Assay: Test of the herbicidal activity on Arabidopsis thaliana seedlings grown hydroponically at the cotyledon stage
Type: in vivo
Set-up: key: A for Active in the case where the plant is killed, that is to say when the two cotyledons have lost all of their green coloration; “N” for Not active, in the case where no biological activity is observed
Conditions: for Activity after 24 h: 24 h after application; for Activity after 96 h: 96 h after application
Description: The compounds were tested on Arabidopsis thaliana seedlings grown hydroponically at the cotyledon stage. Sterile seeds are germinated in the light in a culture plate, in the presence of 200 μL of nutrient medium. After five days of culture (time 0 of the trial), the nutrient medium is replaced with an equivalent volume (200 μL) of this same medium containing the compound to be tested at different concentrations. The manifestation of herbicidal activity is indicated by A for Active in the case where the plant is killed, that is to say when the two cotyledons have lost all of their green coloration, 24 h and 96 h after application of the product. The absence of herbicidal activity is indicated by “N” for Not active, in the case where no biological activity is observed.

SMILES	Activity after 24 h (10 μg/mL in nutrient medium)	Activity after 96 h (10 μg/mL in nutrient medium)	Activity after 24 h (50 μg/mL in nutrient medium)	Activity after 96 h (50 μg/mL in nutrient medium)	Activity after 24 h (100 μg/mL in nutrient medium)	Activity after 96 h (100 μg/mL in nutrient medium)
CC1=CCc2c(cc(CCc3ccccc3)c(C(=O)O)c2O)OC1 [Compound H]	A	A	A	A	A	A
CC1=CCOc2cc(CCc3ccccc3)c(C(=O)O)c(O)c2C1 [Compound C]	A	A	A	A	A	A
CC1=CCc2c(O)cc(CCc3ccccc3)cc2OC1 [Compound A]	N	N	A	A	A	A
COC(=O)c1c(CCc2ccccc2)cc2c(c1O)CC=C(C)CO2 [Compound D]	N	N	N	A	N	A
Oc1cccc2c1CC=CCO2 [Compound E, reference compound]	N	N	N	N	N	N

Reference: patent publication US12193443B2, “Use of benzoxepin derivatives as a herbicide” (ECOLE POLYTECHNIQUE, priority 2019, dated 2025)
